Assays:
Assay type in all cases: in vivo
Pythium graminicola = assay: Test 4: control effect against rice damping-off by the Pythium fungus (soil lavage); conditions: 1,000 ppm, 2.5 ml test suspension drenched on contaminated soil, rice (koshihikari)
Method: A 10% wettable powder created according to the Pharmaceutical Formulation Example 1 was diluted with a Tween20 solution prepared to a concentration of 1/5000, then the compound of formula [1] was prepared to a concentration of 4 ppm. Further, the compound of formula [1] in Test 4 was adjusted to a concentration of 1,000 ppm.
<Test 4 Test of Control Effect Against Rice Damping-Off by the Pythium Fungus (Soil Lavage)>
Distilled water was added to the flora of Pythium graminicola cultured in bentoglass seed culture and stirred with a mixer, and adjusted the contaminated soil to 5 g of bacteria against 1 kg of soil.
In a cell tray having 31×31 mm^2 per cell, 20 ml of the contaminated soil was filled in each cell, and 3 seeds of rice chaff that has been forced to sprout (Species: koshihikari) were seeded, and 5 ml of soil was added for covering, then 2.5 ml of test suspension was drenched, and the seeds were incubated in a moist chamber adjusted to 28° C. for 72 hr to induce sprouting. Then, in a low temperature room of 5° C., the onset of disease was induced for 2 days, then the disease was nurtured for 14 days in a room of 25° C.
The soil was washed, and the apoptosis strain, growth restrained strain, and a healthy strain were measured and the onset rate was calculated by the following formula. Onset rate=[Σ(onset strain number by level×onset index)/(investigated strain×3)]×100 [Onset Index]
1: Growth restrained strain
Also, the following formula was used to compute the control value from the obtained onset index. control value={1−onset area rate at the section applied the test agent/onset area rate of untreated section}×100 Computational formula of the control value: […]

Plasmopara viticola = assay: Test 3: control effect against grape downy mildew; conditions: Plasmopara viticola, 120 h, control value vs untreated section
Method in brief: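 Neomuscat grape seedlings were sprayed with compound at 4 ppm, diluted from a 10% wettable powder in Tween20 solution. One day later they were inoculated with Plasmopara viticola zoospores at 1.0×10^4 units/ml and held moist at 22° C. for 16 hr. Control value was derived from leaf lesion area at 5 days versus untreated leaves.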

[1] = test system: Pseudoperonospora cubensis; assay: Test 2: control effect against cucumber downy mildew; conditions: Pseudoperonospora cubensis, 120 h, control value vs untreated section
Method in brief: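 Cucumber (Sagami hanjiro) at 2-leaf stage sprayed with 4 ppm compound from 10% wettable powder in Tween20 (1/5000); inoculated next day with P. cubensis zoospores, 1.0×10^4 units/ml, 16 hr moist chamber at 22° C. Lesion area rate scored 5 days post-inoculation; control value = (1 − treated/untreated onset area rate)×100.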

Phytophthora infestans = assay: whole plant or invertebrate; conditions: Phytophthora infestans, in Solanum lycopersicum, 96 h, read-out: control value (Test 1)

SMILES	pest or weed control at 1000 ppm (Pythium graminicola)	pest or weed control at 4 µg/mL (Plasmopara viticola)	pest or weed control at 4 µg/mL [1]	pest or weed control at 4 µg/mL (Phytophthora infestans)
CS(=O)(=O)Oc1ccc(F)c2c1COC(c1csc(C3CCN(C(=S)Cn4nc(C(F)F)cc4C(F)F)CC3)n1)OC2 (centres unmarked) [Compound 1-158, 4-[4-(6-fluoro-9-methylsulfonyloxy-1,5-dihydro-3H-2,4-benzodioxepin-3-yl)-2-thiazolyl]-1-[2-[3,5-bis(difluoromethyl)-1H-pyrazole-1-yl]thioacetyl]piperidine]	≥ 90%	100%	100%	100%
Cc1ccc(C)c(CC(=O)N2CCC(c3nc(C4OCc5ccc([N+](=O)[O-])cc5CO4)cs3)CC2)c1 (centres unmarked) [Compound 2-18, 4-[4-(7-nitro-1,5-dihydro-3H-2,4-benzodioxepin-3-yl)-2-thiazolyl]-1-[2-(2,5-dimethylphenyl)acetyl]piperidine]	≥ 90%	100%	100%	100%
Cc1ccc(C)c(CC(=S)N2CCC(c3nc(C4OCc5c(F)ccc(OS(C)(=O)=O)c5CO4)cs3)CC2)c1 (centres unmarked) [Compound 2-57, 4-[4-(6-fluoro-9-methylsulfonyloxy-1,5-dihydro-3H-2,4-benzodioxepin-3-yl)-2-thiazolyl]-1-[2-(2,5-dimethylphenyl)thioacetyl]piperidine]	≥ 90%	100%	100%	100%
Cc1ccc(C)c(N(C)C(=O)N2CCC(c3nc(C4OCc5cccc(OS(C)(=O)=O)c5CO4)cs3)CC2)c1 (centres unmarked) [Compound 2-56, 4-[4-(6-methylsulfonyloxy-1,5-dihydro-3H-2,4-benzodioxepin-3-yl)-2-thiazolyl]-1-[N-(2,5-dimethylphenyl)-N-methylcarbamoyl]piperidine]	≥ 90%	70%	30%	90%
O=C(Cn1nc(C(F)(F)F)cc1C(F)(F)F)N1CCC(c2nc(C3OCc4ccc(F)cc4CO3)cs2)CC1 (centres unmarked) [Compound 1-91, 4-[4-(7-fluoro-1,5-dihydro-3H-2,4-benzodioxepin-3-yl)-2-thiazolyl]-1-[2-[3,5-bis(trifluoromethyl)-1H-pyrazole-1-yl]acetyl]piperidine]	≥ 90%	100%	100%	100%
Cc1ccc(C)c(CC(=O)N2CCC(c3nc(C4OCc5ccc(F)cc5CO4)cs3)CC2)c1 (centres unmarked) [Compound 2-10, 4-[4-(7-fluoro-1,5-dihydro-3H-2,4-benzodioxepin-3-yl)-2-thiazolyl]-1-[2-(2,5-dimethylphenyl)acetyl]piperidine]	≥ 90%	100%	100%	80%
Cc1ccc(C)c(CC(=O)N2CCC(c3nc(C4OCc5cccc(F)c5CO4)cs3)CC2)c1 (centres unmarked) [Compound 2-7, 4-[4-(6-fluoro-1,5-dihydro-3H-2,4-benzodioxepin-3-yl)-2-thiazolyl]-1-[2-(2,5-dimethylphenyl)acetyl]piperidine]	≥ 90%	100%	100%	100%
Cc1ccc(OS(C)(=O)=O)c2c1COC(c1csc(C3CCN(C(=O)Cn4nc(C(F)F)cc4C(F)F)CC3)n1)OC2 (centres unmarked) [Compound 1-44, 4-[4-(6-methyl-9-methylsulfonyloxy-1,5-dihydro-3H-2,4-benzodioxepin-3-yl)-2-thiazolyl]-1-[2-[3,5-bis(difluoromethyl)-1H-pyrazole-1-yl]acetyl]piperidine]	≥ 90%	100%	100%	100%
Cc1cc(C(F)(F)F)nn1CC(=O)N1CCC(c2nc(C3OCc4cccc(Br)c4CO3)cs2)CC1 (centres unmarked) [Compound 1-15, 4-[4-(6-bromo-1,5-dihydro-3H-2,4-benzodioxepin-3-yl)-2-thiazolyl]-1-[2-[5-methyl-3-(trifluoromethyl)-1H-pyrazole-1-yl]acetyl]piperidine]	≥ 90%	100%	100%	100%
COc1cccc2c1COC(c1csc(C3CCN(C(=O)Cn4nc(C(F)(F)F)cc4C(F)(F)F)CC3)n1)OC2 (centres unmarked) [Compound 1-140, 4-[4-(6-methoxy-1,5-dihydro-3H-2,4-benzodioxepin-3-yl)-2-thiazolyl]-1-[2-[3,5-bis(trifluoromethyl)-1H-pyrazole-1-yl]acetyl]piperidine]	≥ 90%	100%	100%	100%
Cc1cc(C(F)(F)F)nn1CC(=O)N1CCC(c2nc(C3OCc4cccc(O)c4CO3)cs2)CC1 (centres unmarked) [Compound 1-33, 4-[4-(6-hydroxy-1,5-dihydro-3H-2,4-benzodioxepin-3-yl)-2-thiazolyl]-1-[2-[5-methyl-3-(trifluoromethyl)-1H-pyrazole-1-yl]acetyl]piperidine]	≥ 90%	100%	100%	100%
Cc1cc(C(F)(F)F)nn1CC(=O)N1CCC(c2nc(C3OCc4c(OS(C)(=O)=O)ccc([N+](=O)[O-])c4CO3)cs2)CC1 (centres unmarked) [Compound 1-32, 4-[4-(6-methylsulfonyloxy-9-nitro-1,5-dihydro-3H-2,4-benzodioxepin-3-yl)-2-thiazolyl]-1-[2-[5-methyl-3-(trifluoromethyl)-1H-pyrazole-1-yl]acetyl]piperidine]	≥ 90%	100%	100%	100%
Cc1cc(C(F)(F)F)nn1CC(=O)N1CCC(c2nc(C3OCc4cccc(S(C)(=O)=O)c4CO3)cs2)CC1 (centres unmarked) [Compound 1-47, 4-[4-(6-methylsulfonyl-1,5-dihydro-3H-2,4-benzodioxepin-3-yl)-2-thiazolyl]-1-[2-[5-methyl-3-(trifluoromethyl)-1H-pyrazole-1-yl]acetyl]piperidine]	≥ 90%	100%	100%	100%
CS(=O)(=O)Oc1ccc(F)c2c1COC(c1csc(C3CCN(C(=O)Cn4nc(C(F)F)cc4C(F)F)CC3)n1)OC2 (centres unmarked) [Compound 1-62, 4-[4-(6-fluoro-9-methylsulfonyloxy-1,5-dihydro-3H-2,4-benzodioxepin-3-yl)-2-thiazolyl]-1-[2-[3,5-bis(difluoromethyl)-1H-pyrazole-1-yl]acetyl]piperidine]	≥ 90%	100%	100%	100%
Cc1cc(C(F)(F)F)nn1CC(=O)N1CCC(c2nc(C3OCc4cccc(C=O)c4CO3)cs2)CC1 (centres unmarked) [Compound 1-70, 4-[4-(6-formyl-1,5-dihydro-3H-2,4-benzodioxepin-3-yl)-2-thiazolyl]-1-[2-[5-methyl-3-(trifluoromethyl)-1H-pyrazole-1-yl]acetyl]piperidine]	≥ 90%	100%	60%	100%
CS(=O)(=O)Oc1cccc2c1COC(c1csc(C3CCN(C(=O)Cc4cc(Cl)ccc4Cl)CC3)n1)OC2 (centres unmarked) [Compound 2-2, 4-[4-(6-methylsulfonyloxy-1,5-dihydro-3H-2,4-benzodioxepin-3-yl)-2-thiazolyl]-1-[2-(2,5-dichlorophenyl)acetyl]piperidine]	≥ 90%	100%	100%	100%
Cc1cc(C(F)(F)F)nn1CC(=O)N1CCC(c2nc(C3OCc4ccc(Cl)cc4CO3)cs2)CC1 (centres unmarked) [Compound 1-40, 4-[4-(7-chloro-1,5-dihydro-3H-2,4-benzodioxepin-3-yl)-2-thiazolyl]-1-[2-[5-methyl-3-(trifluoromethyl)-1H-pyrazole-1-yl]acetyl]piperidine]	≥ 90%	100%	100%	100%

Reference: patent US10104891B2 (priority 2014, dated 2018)
